One assay deals with V. harveyi. Kind of assay: URDA of non-heated and heated peptides. The class given is cell-based, Vibrio harveyi. To be noted: non-heated and after 100 °C for 10 min.
A short description of assay [1]: Calcein leakage assay, acidic liposomes. To be noted: DOPC/DOPG (3:1) LUVs 95 µM, 20 mM TES pH 7.4, 25 °C, 3 min, peptide 20 μM. On the procedure:
(§1) For leakage experiments, large unilamellar vesicles (LUVs) (DOPC or DOPC-DOPG, 3:1) with encapsulated calcein were prepared using the extrusion method. The desired mixtures of phospholipids were dried in glass tubes under nitrogen and then lyophilized overnight to obtain lipid films. The dry lipid films were suspended in leakage buffer (20 mM TES buffer containing 150 mM NaCl, pH 7.4) and 70 mM calcein, and then vortexed occasionally to disperse the lipids. The suspension was freeze–thawed in liquid nitrogen for 10 cycles and extruded 10 times through 0.1-μm polycarbonate membrane filters in an Avanti mini extruder apparatus (Avanti Polar Lipids, Inc., Alabaster, AL, USA). […]
(§2) Leakage of calcein from liposomes was determined as described by Park et al.. […] The increase in the fluorescence of calcein when leaking out of liposomes was monitored at an emission wavelength of 520 nm and an excitation wavelength at 490 nm. The change in fluorescence intensity was measured for 3 min after peptide addition. […] The percentage of dye release was calculated as follows: Dye leakage (%) = 100 × (F − F0)/(Ft − F0) Where F is the fluorescence intensity caused by the peptide and F0 and Ft are those with buffer alone and with 10% Triton X-100, respectively.

Assay [2] is described as follows: Calcein leakage assay, neutral liposomes. To be noted: DOPC LUVs 95 µM, 20 mM TES pH 7.4, 25 °C, 3 min, peptide 20 μM. The protocol: as §1, §2

Where no end group is shown, it is not given here.

Turning to KLVKTQLKVLK [ofLBP 4N], the “Antimicrobial activity against V. harveyi (URDA)” value with V. harveyi is “did not show any antimicrobial activity”.
Same read-out and setting: the value for MKLVKTWLKVLK-NH2 [ofLBP 6A] was “significant activity”.
As to Piscidin 1 [reference compound], in assay [1], the “Leakage of entrapped calcein from acidic liposomes at 20 μM” value was “complete leakage”. Moreover, in assay [2], the “Leakage of entrapped calcein from neutral liposomes at 20 μM” value is “complete leakage”.
